Measured values reported in ChEMBL document CHEMBL3044798, “Nitrogen concentration and application timing affect imazamox efficacy in winter wheat” (Crop Prot, 2009).
Active and inactive are the calls of the source.

Experiments:
Type in all cases: functional, organism-based
Secale cereale [1] = assay: Herbicidal activity against feral Secale cereale (rye) treated as spring post-emergence application at winter wheat-growing season in presence of urea ammonium nitrate
Secale cereale [2] = assay: Herbicidal activity against feral Secale cereale (rye) treated as fall post-emergence application at winter wheat-growing season in presence of urea ammonium nitrate
Aegilops cylindrica [3] = assay: Herbicidal activity against Aegilops cylindrica treated as spring post-emergence application at winter wheat-growing season relative to urea ammonium nitrate
Aegilops cylindrica [4] = assay: Herbicidal activity against Aegilops cylindrica treated as fall post-emergence application at winter wheat-growing season relative to urea ammonium nitrate

Measured: Activity

COCc1cnc(C2=NC(C)(C(C)C)C(=O)N2)c(C(=O)O)c1 (centres undefined)
active: all assays above
